Here are results for one compound from ChEMBL document CHEMBL5096219, “Design, synthesis and biological evaluation of novel pyrazinone derivatives as PI3K/HDAC dual inhibitors” (Bioorg Med Chem, 2022).

Each structure is given as a SMILES string. pIC50: −log10 of the molar value.

For assay [1], the system named is MV4-11. In words: Induction of apoptosis in human MV4-11 cells assessed as late apoptotic cells at 50 nM incubated for 48 hrs by Annexin V-FITC/PI staining based flow cytometry (reference value: 2.04%). Format: functional. In general terms: A flow cytometer gives signals particle by particle.
For assay [2], the system named is MV4-11. Briefly: Induction of cell cycle arrest in human MV4-11 cells assessed as accumulation of cells at S phase at 450 nM incubated for 48 hrs by […]PI staining based flow cytometry (reference value: 45.5%). Format: functional.
In assay [3] the target is T1, Protein deacetylase HDAC6 (Homo sapiens) (UniProt Q9UBN7).
T1 sequence (whole entry): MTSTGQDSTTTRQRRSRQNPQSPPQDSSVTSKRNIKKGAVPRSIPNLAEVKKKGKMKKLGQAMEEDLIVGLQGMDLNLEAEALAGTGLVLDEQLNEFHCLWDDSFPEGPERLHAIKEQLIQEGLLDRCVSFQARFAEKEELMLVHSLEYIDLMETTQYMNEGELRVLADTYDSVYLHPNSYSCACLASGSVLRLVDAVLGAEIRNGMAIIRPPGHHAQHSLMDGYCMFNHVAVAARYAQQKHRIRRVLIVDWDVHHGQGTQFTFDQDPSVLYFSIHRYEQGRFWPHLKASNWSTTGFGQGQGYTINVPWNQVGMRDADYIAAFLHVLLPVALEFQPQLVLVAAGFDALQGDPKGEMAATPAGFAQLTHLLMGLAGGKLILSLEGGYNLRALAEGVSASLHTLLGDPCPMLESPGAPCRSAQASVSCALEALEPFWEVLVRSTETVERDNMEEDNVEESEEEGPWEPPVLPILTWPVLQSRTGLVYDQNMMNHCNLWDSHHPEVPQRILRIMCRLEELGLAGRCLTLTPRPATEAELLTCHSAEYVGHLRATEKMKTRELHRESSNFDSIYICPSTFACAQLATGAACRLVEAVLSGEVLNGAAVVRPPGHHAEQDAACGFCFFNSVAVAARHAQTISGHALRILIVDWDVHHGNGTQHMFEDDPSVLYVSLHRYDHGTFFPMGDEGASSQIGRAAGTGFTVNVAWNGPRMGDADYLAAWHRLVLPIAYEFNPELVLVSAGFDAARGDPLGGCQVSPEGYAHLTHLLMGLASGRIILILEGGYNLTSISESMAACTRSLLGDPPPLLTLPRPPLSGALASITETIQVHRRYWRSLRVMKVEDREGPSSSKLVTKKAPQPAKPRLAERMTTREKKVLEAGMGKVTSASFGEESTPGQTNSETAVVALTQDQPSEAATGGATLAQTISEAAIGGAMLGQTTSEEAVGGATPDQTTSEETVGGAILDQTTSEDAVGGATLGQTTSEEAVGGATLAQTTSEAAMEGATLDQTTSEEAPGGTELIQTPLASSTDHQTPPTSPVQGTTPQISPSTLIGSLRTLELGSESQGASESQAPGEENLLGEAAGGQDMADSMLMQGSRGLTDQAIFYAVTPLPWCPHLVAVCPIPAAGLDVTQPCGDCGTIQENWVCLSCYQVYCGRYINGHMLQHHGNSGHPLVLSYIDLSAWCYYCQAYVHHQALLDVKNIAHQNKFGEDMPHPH
Briefly: Inhibition of HDAC6 in human MV4-11 cells assessed as increase in acetylated alpha-tubulin level incubated for 24 hrs by western blot analysis. Format: cell-based. Particulars: dose 0.05-0.45 µM, DDE = dose-dependent effect. On the technique in general: Immunoblotting shows a protein as a band on a membrane.

For assay [4], the system named is MV4-11. In words: Induction of apoptosis in human MV4-11 cells assessed as early apoptotic cells at 150 nM incubated for 48 hrs by Annexin V-FITC/PI staining based flow cytometry (reference value: 0.95%). Format: functional.
Assay [5] relates to MV4-11. Briefly: Induction of apoptosis in human MV4-11 cells assessed as necrotic cells at 150 nM incubated for 48 hrs by Annexin V-FITC/PI staining based flow cytometry (reference value: 0.51%). Format: functional.
Assay [6] relates to MV4-11. Briefly: Induction of apoptosis in human MV4-11 cells assessed as total apoptotic cells at 150 nM incubated for 48 hrs by Annexin V-FITC/PI staining based flow cytometry (reference value: 2.99%). The format is functional.
Assay [7] concerns MV4-11. In words: Induction of cell cycle arrest in human MV4-11 cells assessed as accumulation of cells at G2/M phase at 50 nM incubated for 48 hrs by […]PI staining based flow cytometry (reference value: 11.5%). The format is functional.
In assay [8] the test system is MV4-11. In words: Induction of cell cycle arrest in human MV4-11 cells assessed as accumulation of cells at G0/G1 phase at 50 nM incubated for 48 hrs by […]PI staining based flow cytometry (reference value: 33.1%). Format: functional.
Assay [9] has as its system MV4-11. In words: Induction of apoptosis in human MV4-11 cells assessed as total apoptotic cells at 450 nM incubated for 48 hrs by Annexin V-FITC/PI staining based flow cytometry (reference value: 2.99%). Format: functional.
Assay [10] deals with MV4-11. In words: Induction of cell cycle arrest in human MV4-11 cells assessed as accumulation of cells at S phase at 150 nM incubated for 48 hrs by […]PI staining based flow cytometry (reference value: 45.5%). The format is functional.
The test system of assay [11] is MV4-11. Briefly: Induction of apoptosis in human MV4-11 cells assessed as viable cells at 150 nM incubated for 48 hrs by Annexin V-FITC/PI staining based flow cytometry (reference value: 96.5%). Particulars: read-out: Activity. The format is functional.
Assay [12] relates to MV4-11. In words: Induction of apoptosis in human MV4-11 cells assessed as early apoptotic cells at 450 nM incubated for 48 hrs by Annexin V-FITC/PI staining based flow cytometry (reference value: 0.95%). The format is functional.
Assay [13] has as its target Phosphatidylinositol 4,5-bisphosphate 3-kinase catalytic subunit alpha isoform (Homo sapiens, UniProt P42336). In words: Inhibition of PI3Kalpha (unknown origin) by mobility shift assay.
Assay [14] concerns MV4-11. In words: Induction of apoptosis in human MV4-11 cells assessed as early apoptotic cells at 50 nM incubated for 48 hrs by Annexin V-FITC/PI staining based flow cytometry (reference value: 0.95%). Format: functional.
In assay [15] the target is T1, Protein deacetylase HDAC6 (Homo sapiens). Particulars: dose 100.0 nM.
Description: Inhibition of HDAC6 (unknown origin) at 100 nM
Assay [16] relates to MV4-11. Briefly: Induction of cell cycle arrest in human MV4-11 cells assessed as accumulation of cells at S phase at 50 nM incubated for 48 hrs by […]PI staining based flow cytometry (reference value: 45.5%). The format is functional.
In assay [17] the test system is MV4-11. Briefly: Induction of cell cycle arrest in human MV4-11 cells assessed as accumulation of cells at G2/M phase at 1350 nM incubated for 48 hrs by […]PI staining based flow cytometry (reference value: 11.5%). Format: functional.

Sequence of Phosphatidylinositol 4,5-bisphosphate 3-kinase catalytic subunit alpha isoform (P42336 whole entry, canonical isoform): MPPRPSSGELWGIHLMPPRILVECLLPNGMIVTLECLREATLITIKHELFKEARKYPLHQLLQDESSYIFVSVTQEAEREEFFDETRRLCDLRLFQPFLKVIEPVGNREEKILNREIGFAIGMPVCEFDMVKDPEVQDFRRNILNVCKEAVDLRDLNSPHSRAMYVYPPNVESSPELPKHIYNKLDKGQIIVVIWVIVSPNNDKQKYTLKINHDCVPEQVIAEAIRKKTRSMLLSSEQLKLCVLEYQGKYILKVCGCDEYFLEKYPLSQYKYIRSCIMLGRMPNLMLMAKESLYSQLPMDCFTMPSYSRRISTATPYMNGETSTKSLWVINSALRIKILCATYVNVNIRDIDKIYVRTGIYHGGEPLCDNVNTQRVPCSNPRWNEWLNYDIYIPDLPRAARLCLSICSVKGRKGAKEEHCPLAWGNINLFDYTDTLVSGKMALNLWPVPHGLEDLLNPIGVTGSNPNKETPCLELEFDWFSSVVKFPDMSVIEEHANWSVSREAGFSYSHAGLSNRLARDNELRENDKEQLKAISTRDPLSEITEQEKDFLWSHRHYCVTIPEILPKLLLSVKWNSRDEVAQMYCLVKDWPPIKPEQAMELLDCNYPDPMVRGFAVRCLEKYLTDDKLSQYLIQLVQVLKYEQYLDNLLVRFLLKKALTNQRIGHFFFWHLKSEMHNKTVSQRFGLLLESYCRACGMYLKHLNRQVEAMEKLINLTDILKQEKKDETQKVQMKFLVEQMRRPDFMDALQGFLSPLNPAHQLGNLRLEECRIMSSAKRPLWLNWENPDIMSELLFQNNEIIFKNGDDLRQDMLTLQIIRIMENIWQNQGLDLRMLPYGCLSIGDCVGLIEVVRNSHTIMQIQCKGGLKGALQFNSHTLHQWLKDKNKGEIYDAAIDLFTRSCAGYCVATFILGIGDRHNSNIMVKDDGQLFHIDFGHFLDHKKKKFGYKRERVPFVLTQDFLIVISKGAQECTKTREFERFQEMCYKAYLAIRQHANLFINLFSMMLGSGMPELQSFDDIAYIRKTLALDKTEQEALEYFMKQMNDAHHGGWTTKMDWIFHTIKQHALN

A word on the inhibition: it is the drop in the measured response relative to a control, in per cent. One may read the pIC50 as the negative decadic logarithm of the IC50, by convention in mol/L. Consider `O=C(NO)c1ccc(Cn2cc(-c3cccc4[nH]ncc34)nc(N3CCOCC3)c2=O)cc1`, for which the Activity turned out to be 3.67% in assay [1]; 34.9% in [2]; 2.44% in assay [4]; 3.45% in assay [5]; 16.94% in [6]; 24.6% in assay [7]. Besides, the Activity was found to be 28.4% in [8]; 80.7% in [9]; 31% in assay [10]; 34.6% in [12]; 3.53% in assay [14]; 37.8% in assay [16]. The Activity in [17] was 51.8%. The inhibition result in [3] is “Dde”; in assay [15], 90%. The viability at 0.15 µM in [11] came to 79.6%. For the same compound, the pIC50 in assay [13] was 6.43.
